According to patent publication US8834848B2, “Flow and volume regulated inhalation for treatment of severe oral corticosteroid-dependent asthma” (Activaero GmbH Research & Development, priority 2009, dated 2014):

Experiments:
[1] = Clinical trial: budesonide serum concentration analysis; type: in vivo, human; settings: baseline to week 18; roughly 12 hours dosing interval
Protocol: For budesonide serum concentration analysis, blood was drawn in all four investigated groups either before inhalation or 30-60 minutes following inhalation at baseline (post-inhalation) and at week 18 (pre- and post-inhalation). Results are seen in FIG. 10.

[2] = system: oral steroid-dependent asthma subjects; settings: nominal 4-8 mg daily, conventional nebulizer; cited from earlier work
[3] = human, in vivo
Protocol: Thus the flow-controlled, slow inhalation at about 200 ml/sec enables maximum drug deposition in the target area of small airways. As further seen in FIG. 12, such inhalation method leads to an alveolar drug deposition of 40 to 50%. In contrast, alveolar deposition is below 10% when using a high inspiratory flow rate of 1000 ml/sec and a small inhalation volume of 350 ml, and it is 20-30% when using an inspiratory flow rate of 1000 ml/sec and an inhalation volume of 1800 ml. It is thus preferred to combine the controlled, slow flow rate of e.g. 200 ml/sec with higher inhalation volumes. As mentioned above, said inhalation volumes depend on the individual patient's lung function and the severity grade of the pulmonary disease, but in cooperation between physician and patient, a volume as high as is well tolerable for the patient can be chosen (see also Table 7).

[4] = after IV or inhalation administration; cited from earlier work
asthma patients = settings: cited from earlier work
asthmatic children = settings: 50 or 100 μg twice a day via dry powder inhaler; cited from earlier work
chronic asthma = settings: at half the daily dose of beclomethasone or budenoside; cited from earlier work
[5] = system: asthma in adults and children; settings: 2000 μg once a day, AKITA protocol; cited from earlier work
healthy volunteers = settings: inhalation; cited from earlier work
[6] = system: patients with severe chronic asthma; settings: 500 or 1000 μg twice daily; cited from earlier work
[7] = system: patients with chronic oral dependent asthma; settings: cited from earlier work
[8] = system: children with acute exacerbated asthma; settings: nebulized; cited from earlier work

SMILES | accumulation of budesonide in serum [1] | subjects with side effects like oral thrush or disturbing sore throat [2] [%] | alveolar drug deposition [3] | elimination half-life [4] [h] | reduction of need for oral prednisolone (asthma patients; 2000 μg per day versus 1500 or 1000 μg/day) | hoarseness and oral candidiasis (asthma patients; higher doses) | patients reporting adverse effects (asthmatic children) [%] | adverse side effects (chronic asthma) | effect on FEV1 (chronic asthma) | FEV1 improvement [5] [%] | amount of administered dose that reached the central portion of the lungs (estimated) [5] [µg] | reduction in oral steroid use [5] [%] | relative lung dose, large volume (750 ml) spacer versus nebulizer (healthy volunteers) | adverse effects [6] | oral corticosteroid-sparing effect [6] | patients who discontinued the treatment ([7]; 4000 μg/day nebulized) [%] | reduction in the need for orally administered prednisone, 4000 μg versus 1000 μg per day ([7]; nebulized, bid) | efficacy compared to oral prednisolone [8]
CCCC1O[C@@H]2C[C@H]3[C@@H]4CCC5=CC(=O)C=C[C@]5(C)[C@H]4[C@@H](O)C[C@]3(C)[C@]2(C(=O)CO)O1 (stereo partly drawn) [budesonide] | did not accumulate in serum | 11 | 40-50% | 2.2 to 4.5 | – | – | – | – | – | – | – | – | – | – | – | – | – | –
CCC(=O)O[C@]1(C(=O)SCF)[C@H](C)C[C@H]2[C@@H]3C[C@H](F)C4=CC(=O)C=C[C@]4(C)[C@@]3(F)[C@@H](O)C[C@@]21C [fluticasone propionate] | – | – | – | – | more likely to reduce a need for oral prednisolone | significantly greater | 51 | higher risk of pharyngitis and other adverse side effects | improvement of forced expiratory volume in the first second (FEV1) | 17.1 | 500 to 700 | 33.2 | sevenfold | topical adverse effects associated with inhaled corticosteroids were observed | eliminated a need for oral prednisone | 37 | significantly greater | at least as effective as oral prednisolone
